Reference: patent US20220372040A1, “METTL3 MODULATORS” (Accent Therapeutics, Inc., priority 2020, published 2022)
Like-named read-outs stand apart in the source and are kept apart here.

Columns and labels:
METTL1/WDR4 = METTL1/WDR4 (Homo sapiens, UniProt Q9UBP6); test: METTL1 assay (3H-SAM flashplate scintillation); type: biochemical
Summary of the method: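 Radiometric methyltransfer by METTL1/WDR4 (6.25 nM f.c., 5 min preincubation) at ambient temperature in HEPES pH 7.5, KCl, MgCl2, DTT; started with 25 nM 3′-biotinylated RNA and 60 nM 3H-SAM, run 20 min, quenched with 15 μM cold SAM. Product captured on streptavidin flashplates (2 h, 25° C), counted by scintillation.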

[1] = tested on: m^6 A in cellular mRNA of MOLM-13 cells; test: m^6 A-mRNA LC-MS/MS assay (m^6 A cellular assay); type: cell-based; details: Homo sapiens, 24 hours incubation, LC-MS/MS of m^6 A/A in mRNA
Method: m^6 A-mRNA LC-MS/MS Assay
5×10^6 MOLM-13 (DSMZ) cells were seeded into 10 cm dishes in RPMI 1640 media containing 10% fetal bovine serum and placed in a humidified tissue culture incubator at 37° C. overnight. Compounds were resuspended in 100% DMSO and dosed into each dish at a fixed concentration to comprise an 8-point dose response with a 4-fold serial dilution ranging from 25 μM to 1.5 nM in 0.25% DMSO final and allowed to incubate for 24 hours in a humidified tissue culture incubator at 37° C. Cells were harvested by centrifugation followed by mRNA extraction using DTRECT Dynabeads mRNA DTRECT kit (Life Technologies). mRNA was quantified on NanoDrop spectrophotometer (Thermo Fisher Scientific) and digested into single nucleosides using Nucleoside Digestion Mix (New England Biolabs). Nucleosides are quantified with retention time on a BEH […] column (Waters) and the nucleoside-to-base ion mass transition of 282.1-150.1 (m^6 A) and 268-136 (A) on an API 6500+ triple quadrupole mass spectrometer. Quantification is performed in comparison with the standard curve, obtained from pure nucleoside standards (Selleck Chemicals) running with the same batch of samples. Percentage m^6 A in cellular mRNA is calculated as 100*(m^6 A/A).

PRMT5-MEP50 = PRMT5-MEP50 (Homo sapiens, UniProt O14744); test: PRMT5 assay (3H-SAM flashplate scintillation); type: biochemical; details: PRMT5-MEP50 2.5 nM, histone H4 peptide 100 nM, 3H-SAM 250 nM, 60 min
PRMT5-MEP50, sequence (O14744 whole entry): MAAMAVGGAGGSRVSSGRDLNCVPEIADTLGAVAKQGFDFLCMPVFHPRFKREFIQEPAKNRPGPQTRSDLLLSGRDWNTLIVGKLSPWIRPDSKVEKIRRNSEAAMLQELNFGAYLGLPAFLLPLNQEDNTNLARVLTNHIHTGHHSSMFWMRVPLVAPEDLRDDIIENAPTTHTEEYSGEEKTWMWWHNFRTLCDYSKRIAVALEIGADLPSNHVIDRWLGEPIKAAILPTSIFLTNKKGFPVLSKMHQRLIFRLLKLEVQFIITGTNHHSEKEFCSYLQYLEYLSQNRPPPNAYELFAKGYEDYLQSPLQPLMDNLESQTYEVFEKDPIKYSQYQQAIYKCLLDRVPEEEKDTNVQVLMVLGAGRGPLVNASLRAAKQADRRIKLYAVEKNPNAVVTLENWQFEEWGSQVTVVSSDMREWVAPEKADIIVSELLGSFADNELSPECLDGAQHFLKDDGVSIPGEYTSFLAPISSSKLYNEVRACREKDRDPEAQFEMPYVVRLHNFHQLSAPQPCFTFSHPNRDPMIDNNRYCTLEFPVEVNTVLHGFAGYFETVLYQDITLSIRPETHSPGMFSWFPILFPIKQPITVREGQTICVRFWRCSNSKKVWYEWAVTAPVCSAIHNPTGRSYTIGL
PRMT5-MEP50, sequence (Q9BQA1 whole entry partner): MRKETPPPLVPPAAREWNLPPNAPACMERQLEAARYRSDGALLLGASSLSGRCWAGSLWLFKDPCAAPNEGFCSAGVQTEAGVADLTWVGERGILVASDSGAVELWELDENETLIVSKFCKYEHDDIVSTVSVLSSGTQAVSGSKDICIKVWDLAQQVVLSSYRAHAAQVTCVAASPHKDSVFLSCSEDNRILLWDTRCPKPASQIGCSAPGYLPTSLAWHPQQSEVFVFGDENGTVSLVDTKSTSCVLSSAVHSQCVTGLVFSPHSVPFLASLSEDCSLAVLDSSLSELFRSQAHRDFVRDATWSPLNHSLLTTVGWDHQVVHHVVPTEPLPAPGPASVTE
Summary of the method: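 PRMT5-MEP50 (2.5 nM final) preincubated 5 min with compound, then reacted 60 min at ambient temperature with 100 nM biotinylated N-acetyl histone H4 peptide and 250 nM 3H-SAM in 20 mM Tris-HCl pH 8.0, 1 mM DTT, 0.01% Tween. Quenched with 15 μM cold SAM; methylated peptide captured on streptavidin flashplates, scintillation counted.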

METTL3/METTL14 = METTL3/METTL14 (Homo sapiens, UniProt Q86U44); test: METTL3-14 standard enzyme assay (3H-SAM flashplate scintillation); type: biochemical; details: METTL3/METTL14 2.5 nM, RNA 100 nM, 3H-SAM 100 nM, 30 min
METTL3/METTL14, sequence (Q86U44 whole entry, species assumed): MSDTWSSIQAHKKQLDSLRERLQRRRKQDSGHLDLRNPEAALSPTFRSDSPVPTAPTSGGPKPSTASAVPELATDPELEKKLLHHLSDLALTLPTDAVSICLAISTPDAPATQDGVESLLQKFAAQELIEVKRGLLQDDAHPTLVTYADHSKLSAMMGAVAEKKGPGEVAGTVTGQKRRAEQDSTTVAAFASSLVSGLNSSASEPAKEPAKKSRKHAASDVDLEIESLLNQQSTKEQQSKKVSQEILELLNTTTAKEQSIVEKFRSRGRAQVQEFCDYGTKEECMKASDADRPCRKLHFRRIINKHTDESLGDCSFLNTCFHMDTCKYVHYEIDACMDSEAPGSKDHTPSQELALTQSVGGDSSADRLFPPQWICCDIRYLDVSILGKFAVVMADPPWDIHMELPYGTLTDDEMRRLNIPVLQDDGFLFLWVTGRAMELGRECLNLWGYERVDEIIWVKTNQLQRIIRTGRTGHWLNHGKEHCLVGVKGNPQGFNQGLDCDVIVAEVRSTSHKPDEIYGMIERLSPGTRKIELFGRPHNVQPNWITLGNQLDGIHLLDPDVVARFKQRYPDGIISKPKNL
METTL3/METTL14, sequence (Q9HCE5 whole entry partner, species assumed): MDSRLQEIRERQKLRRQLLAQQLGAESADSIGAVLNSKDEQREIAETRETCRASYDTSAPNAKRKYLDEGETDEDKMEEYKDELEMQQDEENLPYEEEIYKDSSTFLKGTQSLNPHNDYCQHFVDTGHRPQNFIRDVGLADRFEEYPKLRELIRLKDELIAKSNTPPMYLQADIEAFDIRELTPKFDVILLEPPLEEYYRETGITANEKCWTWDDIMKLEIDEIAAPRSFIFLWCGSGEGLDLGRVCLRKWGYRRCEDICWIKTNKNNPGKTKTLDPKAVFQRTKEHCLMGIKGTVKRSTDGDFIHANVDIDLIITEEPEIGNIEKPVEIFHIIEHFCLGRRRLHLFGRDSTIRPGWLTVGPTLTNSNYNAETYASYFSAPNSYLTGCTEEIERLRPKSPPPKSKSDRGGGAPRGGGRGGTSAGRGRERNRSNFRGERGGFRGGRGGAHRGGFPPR
Summary of the method: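 METTL3/METTL14 (2.5 nM final) preincubated 5 min with compound in 20 mM HEPES pH 7.5, 50 mM KCl, 250 μM MgCl2, 1 mM DTT, ambient temperature; started with 100 nM 3′-biotinylated RNA (UCUGGACUAAA) and 100 nM 3H-SAM. After 30 min, quenched with 15 μM cold SAM; methylated RNA captured on streptavidin flashplates and counted by scintillation.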

MOLM-13 cells = test: MOLM-13 96 Hour cell proliferation assay (Cell Titer-Glo); type: cell-based; details: Homo sapiens
Method: MOLM-13 96 Hour Cell Proliferation Assay
MOLM-13 (DSMZ) cells were seeded at 600 cells per well in a volume of 44 μL in a Greiner Bio-One CELLSTAR™ 384 Well Polystyrene Cell Culture clear bottom microplate in RPMI 1640 media containing 10% fetal bovine serum using a Multidrop Combi (ThermoFisher Scientific). Cells were incubated overnight at 37° C. in a humidified tissue culture incubator. To prevent evaporation or to reduce edge effect, add 50 μL or more H2O to an empty plate, cover, and place on top of the cell plates. The Mosquito® HTS Liquid Handler was used to make a compound/media intermediate plate by aliquoting 1 μL of compound from the initial compound dilution plate (concentrations ranging from 10.0 mM to 38.0 nM in 100% DMSO) into Bio-One 384-well polypropylene conical bottom microplate containing 49 μL of media containing the appropriate serum (50-fold dilution, 2% DMSO, compound concentrations ranging from 200.0 μM and […]). The Apricot liquid handling system was used to transfer 6.2 μL compounds from the intermediate plate into the seeding plate containing 44 μL cells (8-fold dilution spanning concentrations 25.0 μM to […], 0.25% DMSO final), and placed in a humidified tissue culture incubator at 37° C. After 96 hours, 25 μL of Cell Titer-Glo reagent (Promega) was added to each well using an Integra liquid handling system. The plate was protected from light using TopSeal-A (Black) film over the entire plate, added White Bottom seal film on the bottom of the entire plate for a better reading on the Envision, and placed on an IKA plate shaker for at 300 rpm for 10 minutes at room temperature. The plate was read on an EnVision plate reader (Perkin Elmer) using the Ultra Sensitive Luminescence protocol. Data analysis was performed by normalizing the raw luminescence units to an average of the positive control values for staurosporine (100% cell death) and the negative control values for DMSO (0% cell death). An IC50 was calculated using a 4-parameter logistic nonlinear regression model in GraphPad Prism.

METTL16 = biological target: T1, METTL16 (Homo sapiens, UniProt Q86W50); test: METTL16 assay (3H-SAM flashplate scintillation); type: biochemical; details: METTL16 100 nM, RNA 50 nM, 3H-SAM 200 nM, SAM 800 nM, 20 min
T1 sequence (Q86W50 1-562): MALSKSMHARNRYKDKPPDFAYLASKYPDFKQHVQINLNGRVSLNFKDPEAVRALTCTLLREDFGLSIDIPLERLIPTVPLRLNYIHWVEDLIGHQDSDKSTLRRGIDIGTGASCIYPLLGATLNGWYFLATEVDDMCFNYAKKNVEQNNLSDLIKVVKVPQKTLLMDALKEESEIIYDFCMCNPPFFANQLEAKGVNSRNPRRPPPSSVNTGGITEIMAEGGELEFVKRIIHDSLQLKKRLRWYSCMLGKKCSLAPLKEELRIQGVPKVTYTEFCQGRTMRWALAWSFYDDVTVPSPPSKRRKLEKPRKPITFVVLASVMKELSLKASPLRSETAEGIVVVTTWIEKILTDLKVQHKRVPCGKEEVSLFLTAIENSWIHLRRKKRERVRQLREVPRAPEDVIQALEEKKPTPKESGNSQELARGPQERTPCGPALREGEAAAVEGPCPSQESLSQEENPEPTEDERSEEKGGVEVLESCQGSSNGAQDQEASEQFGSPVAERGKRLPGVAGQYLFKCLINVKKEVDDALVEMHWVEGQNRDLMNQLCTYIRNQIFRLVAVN
Summary of the method: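 Radiometric methyltransferase reaction at ambient temperature in 20 mM HEPES pH 7.5, 50 mM KCl, 1 mM DTT, with 100 nM enzyme preincubated 5 min with compound. It was started with 50 nM 3′-biotinylated RNA, 200 nM 3H-SAM plus 800 nM cold SAM, run 20 min, then quenched with excess cold SAM. Product was captured on streptavidin flashplates and scintillation-counted.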

[2] = METTL1/WDR4 6.25 nM, RNA 25 nM, 3H-SAM 60 nM, 20 min, read-out: METTL1 IC50

METTL1/WDR4, sequence (Q9UBP6 whole entry, species assumed): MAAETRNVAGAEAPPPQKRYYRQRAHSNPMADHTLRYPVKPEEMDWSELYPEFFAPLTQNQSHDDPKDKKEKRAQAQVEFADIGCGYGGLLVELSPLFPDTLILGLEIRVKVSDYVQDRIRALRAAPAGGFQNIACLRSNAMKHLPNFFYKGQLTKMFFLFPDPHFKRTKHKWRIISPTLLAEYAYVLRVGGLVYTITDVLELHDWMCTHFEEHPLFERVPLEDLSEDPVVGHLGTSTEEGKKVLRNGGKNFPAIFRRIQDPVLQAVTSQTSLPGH
METTL1/WDR4, sequence (P57081 whole entry partner, species assumed): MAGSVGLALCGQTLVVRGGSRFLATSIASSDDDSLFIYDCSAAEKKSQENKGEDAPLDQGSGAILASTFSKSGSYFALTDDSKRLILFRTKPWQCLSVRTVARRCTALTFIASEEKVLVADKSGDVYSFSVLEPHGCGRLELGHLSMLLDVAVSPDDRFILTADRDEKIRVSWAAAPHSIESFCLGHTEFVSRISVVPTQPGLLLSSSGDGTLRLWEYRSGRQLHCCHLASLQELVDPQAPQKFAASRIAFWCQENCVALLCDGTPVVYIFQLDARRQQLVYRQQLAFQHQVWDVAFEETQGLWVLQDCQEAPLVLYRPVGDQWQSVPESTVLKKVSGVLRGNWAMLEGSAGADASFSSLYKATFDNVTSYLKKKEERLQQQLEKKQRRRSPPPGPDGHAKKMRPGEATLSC

## CNc1ccc2ccc(OCc3cncc(-n4cc(Cl)c5c(N)ncnc54)n3)cc2n1 [Compound I-20]
METTL1/WDR4; [2]
  IC50: > 1000 nM
[1]
  IC50: 1 to 10 µM
PRMT5-MEP50
  IC50: > 1000 nM
METTL3/METTL14
  IC50: < 10 nM

## Cc1cc(N)c2ccc(OCc3cncc(-n4ccc5c(N)ncnc54)c3)cc2n1 [Compound I-48]
PRMT5-MEP50
  IC50: > 1000 nM
METTL3/METTL14
  IC50: 100 to 1000 nM
MOLM-13 cells
  IC50: ≥ 10000 nM
METTL16
  IC50: > 1000 nM

## CCc1cc(N)c2ccc(OCc3cncc(-n4cc(Cl)c5c(N)ncnc54)c3)cc2n1 [Compound I-52]
[1]
  IC50: ≥ 10 µM
PRMT5-MEP50
  IC50: > 1000 nM
METTL3/METTL14
  IC50: < 10 nM
METTL16
  IC50: > 1000 nM

## Nc1ncnc2c1c(Cl)cn2-c1cncc(COc2ccc3ccc(NCC4CC4)nc3c2)c1 [Compound I-55]
PRMT5-MEP50
  IC50: > 1000 nM
METTL3/METTL14
  IC50: 100 to 1000 nM
MOLM-13 cells
  IC50: 1000 to 10000 nM
METTL16
  IC50: > 1000 nM

## CNc1ccc2ccc(OCc3cncc(-n4cc(C5CCCO5)c5c(N)ncnc54)c3)cc2n1 (centres unmarked) [Compound I-97]
METTL1/WDR4
  IC50: > 1000 nM
PRMT5-MEP50
  IC50: > 1000 nM
METTL3/METTL14
  IC50: < 10 nM
MOLM-13 cells
  IC50: < 1000 nM

## CC(C)c1cc(N2CCC2)c2ccc(OCc3cncc(-n4ccc5c(N)ncnc54)c3)cc2n1 [Compound I-99]
METTL1/WDR4; [2]
  IC50: > 1000 nM
PRMT5-MEP50
  IC50: > 1000 nM
METTL3/METTL14
  IC50: < 10 nM
MOLM-13 cells
  IC50: < 1000 nM

## CNc1ccc2ccc(CCc3cncc(-n4cc(C5CCCC5)c5c(N)ncnc54)n3)cc2n1 [Compound I-110]
METTL1/WDR4; [2]
  IC50: > 1000 nM
[1]
  IC50: 1 to 10 µM
PRMT5-MEP50
  IC50: > 1000 nM
METTL3/METTL14
  IC50: < 10 nM
METTL16
  IC50: > 1000 nM

## CCc1cc(NC)c2ccc(OCc3cncc(-n4cc(-c5ccn(C)n5)c5c(N)ncnc54)c3)cc2n1 [Compound I-135]
[1]
  IC50: 1 to 10 µM
METTL3/METTL14
  IC50: < 10 nM
MOLM-13 cells
  IC50: < 1000 nM

## CCc1cc(N(C)C2CC2)c2ccc(OCc3cncc(-n4cc(-c5ccn(C)n5)c5c(N)ncnc54)c3)cc2n1 [Compound I-136]
[1]
  IC50: 1 to 10 µM
METTL3/METTL14
  IC50: < 10 nM
MOLM-13 cells
  IC50: < 1000 nM

## CCc1cc(N(C)CC2CC2)c2ccc(OCc3cncc(-n4cc(-c5ccn(C)n5)c5c(N)ncnc54)c3)cc2n1 [Compound I-137]
[1]
  IC50: 1 to 10 µM
METTL3/METTL14
  IC50: < 10 nM
MOLM-13 cells
  IC50: < 1000 nM

## CCc1cc(NCCOC)c2ncc(OCc3cncc(-n4cc(-c5ccn(C)n5)c5c(N)ncnc54)c3)cc2n1 [Compound I-138]
[1]
  IC50: 1 to 10 µM
METTL3/METTL14
  IC50: < 10 nM
MOLM-13 cells
  IC50: < 1000 nM

## Nc1ncnc2c1c([C@@H]1CCCO1)cn2-c1cncc(COc2ccc3ccc(N4CCC4)nc3c2)c1 [Compound I-145]
[1]
  IC50: < 1 µM
METTL3/METTL14
  IC50: < 10 nM
MOLM-13 cells
  IC50: < 1000 nM
